Measured values as given in US20060025394A1, “Estradiol-related compounds and methods of use as anti-tumor agents” (priority 2003, published 2006).

Key:
[1] = system: DU145; experiment: MTS cell viability assay in DU145; format: cell-based
Method: (§1) DU145, LNCaP, PC3, and MCF-7 cells were obtained from the American Type Culture Collection (Manassas, Va.). DU145, PC3, and MCF-7 cells were maintained in Dulbecco's modified Eagle's medium/F-12 supplemented with 5% heat inactivated Fetal Calf Serum and Penicillin/Streptomycin (Invitrogen Life Technologies, Carlsbad, Calif.). LNCaP cells were maintained in RPMI 1640 medium supplemented in the same fashion. Cells were cultured in 75 cm^2 flasks (Falcon, BD Biosciences, Bedford, Mass.) at 37° C. and 5% CO2. For the MTS assay (Example 3), five thousand cells were plated in each well of a 24 well plate (Falcon), were allowed to attach for a 48-hour period in the media described, and changed to a defined medium, (DMEM/F-12 or RPMI1640) supplemented with insulin (BD Biosciences). A 1000× solution of the compound of interest solubilized in DMSO (Sigma, Saint Louis, Mo.) was diluted in the defined media just prior to starting each experiment, and media was refreshed every 48 to 72 hours throughout the experiments.
(§2) . Upon completing five days of treatment, the medium in each well was exchanged for 400 μL of an MTS solution (3-(4,5-dimethylthiazol-2-yl)-5-(3-carboxymethoxyphenyl)-2-(4-sulfophenyl)-2H-tetrazolium, inner salt; O'Toole SA, 2003, Cancer Detect Prev., 2003;27(1):47-54) spiked into media as per the manufacture's instructions (Promega, Madison, Wis.) and incubated for 2 hours at 37° C. before reading the absorbance on the μQuant UV/VIS plate reader, in conjunction with KCjunior Software (Bio-Tek Instruments, Winooski, Vt.) set at 490 nm. All experiments were carried out in quadruplicate, control wells were treated with the carrier DMSO. E2, which is estradiol-17β (Steraloids®, Newport, R.I.) and resveratrol (Sigma) were used as controls. […]

[2] = system: DU145, PC3, and LNCaP cell lines; experiment: MTS assay, values averaged or stated over the CaP cell lines; format: cell-based; details: apoptotic mechanism
Method: as §1, §2

[3] = system: DU145 cells; experiment: Flow cytometry cell cycle analysis; format: cell-based; details: 16 nM
Method: The cells were trypsinized for five minutes, scraped, washed in serum containing media, centrifuged at 300 rpm for 10 minutes, and fixed in ice-cold 70% ethanol for 24 hours at −20° C. The cells were again pelleted and resuspended in buffer containing nine parts 0.05M Na2HPO4 and one part 25 mM citric acid with 0.1% Triton X-100 (pH 7.8) for 2 hours. Cells were pelleted, resuspended in a buffer ([…], 0.1 N NaCl, 2 mM MgCl2, and 0.1% Triton X-100) containing 20 μg PI and 50 μg/ml RNAse (pH 6.8), and incubated in the dark at room temperature for 30 minutes. Cell cycle distribution and DNA content analysis were assayed according to standard methods with a FACS sorter, FACScan™ flow cytometer (Becton Dickinson, Mountain View, Calif.), and analyzed by the Cell Cycle Multi-Cycle system (Phoenix Flow System, San Diego, Calif.). Approximately 15,000 single events were collected, and cell-cycle distribution was determined using Modfit LT version 2 software (Verity House, Inc., Topsham, Me.). All analyses were carried out in quadruplicate.

[4] = target: T1, ER-β (Homo sapiens, UniProt Q92731); experiment: Estrogen receptor relative binding affinity assay, fluorescence polarization, ER-β
T1 construct: purchased Pan Vera, Madison, Wis
T1 sequence (Q92731 whole entry): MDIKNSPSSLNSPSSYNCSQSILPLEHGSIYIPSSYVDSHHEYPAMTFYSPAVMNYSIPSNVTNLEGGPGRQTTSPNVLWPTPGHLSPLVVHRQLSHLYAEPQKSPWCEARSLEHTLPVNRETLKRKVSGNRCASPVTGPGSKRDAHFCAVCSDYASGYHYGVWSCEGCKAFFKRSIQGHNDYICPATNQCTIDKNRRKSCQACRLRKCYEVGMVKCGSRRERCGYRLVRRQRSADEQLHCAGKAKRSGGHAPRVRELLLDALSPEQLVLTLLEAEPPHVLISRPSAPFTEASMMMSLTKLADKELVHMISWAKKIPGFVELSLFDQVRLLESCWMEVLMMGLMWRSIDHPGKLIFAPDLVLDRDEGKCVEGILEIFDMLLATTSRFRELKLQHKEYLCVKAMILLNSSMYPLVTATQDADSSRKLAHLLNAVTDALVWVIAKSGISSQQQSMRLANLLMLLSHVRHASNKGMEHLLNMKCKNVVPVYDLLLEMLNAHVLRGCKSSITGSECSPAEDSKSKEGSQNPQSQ
Method: All assays were carried out as per the manufacture's instructions with the following modifications.

C[C@]12CC[C@@H]3c4ccc(O)cc4CC[C@H]3[C@@H]1CC[C@@]2(O)/C=C\c1ccc(N)cc1 [APVE2, 17α-20Z-21-[(4-amino)phenyl]-19-norpregna-1,3,5(10),20-tetraene-3,17β-diol]
decrease in cell number ([1]; DU145, 5 days of treatment at 1 μM): 92±0.9%
EC50 ([1]; Homo sapiens, DU-145, 120 h, read-out: EC50 (cell death, MTS)): 16 nM
level of cell death [2]: > 90%
increase in G2/M accumulation [3]: over 4 fold
G1/G0 phase, compared to non-treated controls ([3]; day 2-3): 135%
G2/M, compared to non-treated controls ([3]; day 3): no change
S phase, decrease to, compared to non-treated controls ([3]; day 3): 32%
G1/G0, decrease to, over non-treated controls ([3]; day 4): 48%
S phase, over non-treated controls ([3]; day 4): 73%
G2/M arrest, over non-treated controls ([3]; day 4-5): 420%
loss of G1 ([3]; four to five days): over 48%
loss in S phase ([3]; second and third day): up to 68%
preference for ER-β over ER-α [4]: 7 fold
EC50 ([4]; fluorescence polarization, 25° C., 2 hours): 250 nM
ER-β % RBA ([4]; ratio of EC50 values as compared to E2): 6.2%
ER-α/ER-β ([4]; ratio of RBAs): 0.14
